Assay results from patent US9969743B2, “Urea and amide derivatives of aminoalkylpiperazines and use thereof” (Southern Research Institute, priority 2012, dated 2018).

Assays:
Format in all cases: in vivo
Long Evans rats [1] = test: Food self-administration under PR schedule of reinforcement; settings: 3.75 mg dose vs 0, t(7)=0.43, p=0.66
Experimental: In Vivo Studies. Effect on Food-Self administration. These studies were performed using Long Evans rats using standard protocols. Training and testing took place in ventilated and sound-attenuated operant chambers measuring 30×21×18 cm. Each chamber contained two levers, one light above each of the levers, and a food trough. Each lever was positioned 2.5 cm from the rod floor and the food trough (measuring 5×5 cm) was centered between the two levers. A different set of animals (n=8) was trained to press a lever reinforced by food under a FR1 schedule of reinforcement. […] Percentage of baseline BPs for food self-administration was analyzed using a dependent measures t-test comparing the 0 and 3.75 mg doses of 113.

Long Evans rats [2] = test: Cocaine self-administration under PR schedule of reinforcement
Experimental: In Vivo Studies. Effect on Cocaine-Self administration. These studies were performed using Long Evans rats using standard protocols (Quinlan M. G. et al. Psychopharmacol. 2004, 175, 53-59; Ranaldi, R. et al. Behav. Pharmacol. 2011, 22, 347-353). Cocaine self-administration sessions were conducted in sixteen operant chambers; eight measuring 30×22×27 cm (l×w×h) and the other eight measuring 26×26×30 cm (l×w×h). Each chamber was situated inside a sound-attenuating box and was equipped with two retractable levers, a white light above each lever, and a tether. Polyethylene tubing, covered by the tether, connected the animal, through a fluid swivel, to a syringe in a syringe pump (Razel, 3.33 rpm). […] Each animal was tested with one dose of the D3 antagonist, randomly determined, at as many of the three cocaine doses as possible. After a particular test the animal's cocaine dose was changed to another one (randomly determined) and its baseline BP on the new dose was established. BP during the test session was expressed as the percentage of the average BP obtained during the last three baseline sessions. Percentage of baseline BP and final ratio (i.e. the number of lever presses required for the BP infusion) were analyzed using separate two-way analyses of variance (ANOVAs) with dose of 113 and dose of cocaine as between-groups factors. […]

Long Evans rats [3] = test: Cocaine-induced locomotor activity; settings: 3.75, 7.5 or 15 mg/kg 10 minutes before 10 mg/kg of cocaine; p<0.05
Experimental: (§1) In Vivo Studies. Effect on Locomotor Activity. These studies were performed using Long Evans rats using standard protocols. Locomotor activity chambers measuring 43×43×30 cm (l×w×h) were used for the locomotor activity experiments. Each chamber was equipped with eight photo-emitters positioned along the length of the chamber 6 cm above the floor, each paired directly opposite a photocell. Locomotor activity counts were registered when adjacent beams were broken consecutively. Before receiving any drug, the animals (n=96) were placed in locomotor activity chambers for habituation, for 2 hours per day for 3 consecutive days. Based on the locomotor activity score obtained during the third habituation session, animals were assigned into one of […]. […] For the 113 alone experiments, each of the four groups received one of 4 doses of 113 (0, 3.75, 7.5 or 15 mg/kg) 10 minutes prior to placement in the activity chambers. For the 113 cocaine interaction experiments, each of 4 groups were injected with one of the 4 doses of the compound (0, 3.75, 7.5 or 15 mg/kg) 10 minutes before receiving 10 mg/kg of cocaine as the second injection. […] The locomotor counts in the 113 alone and 113/cocaine experiments were analyzed using two separate mixed-design ANOVAs with 113 dose (between-groups) and 5-min bins (repeated measures) as factors. […]

Rats = test: Cue-induced reinstatement of cocaine-seeking; settings: ip injection of one of 3 doses 20 minutes before 1-h reinstatement session
Experimental: In Vivo Studies. Effect on Reinstatement. Rats were trained to self-administer cocaine (1.0 mg/kg/injection) under a FR1 schedule of reinforcement in daily 3-h sessions and, after stable responding was established (as described above) the schedule was changed to FR3. After stable responding under the FR3 schedule was established, extinction training began. Stable responding was defined as follows: 12 consecutive sessions in which total rewards per session was greater than 20 and in which total rewards per session for the last three sessions was within ±10% of the mean of the three sessions. […] After extinction criteria were met each rat was tested in one 1-h reinstatement session; each rat received an ip injection of vehicle or one of 3 doses of the test compound and 20 minutes later was placed in the operant chamber. At the start of the reinstatement session the cocaine-associated cues (light on for 20 s and pump on for 4.5 s) were presented twice, once at 25 sec and again at 2 min into the session. Presses on the active lever illuminated the light and activated the pump.

Long Evans rats [4] = test: Spontaneous locomotor activity; settings: all doses tested (3.75, 7.5, 15 mg/kg), any time during the test sessions
Experimental: as §1

With `CC(C)(C)c1nc(N2CCN(CCCCNC(=O)c3cn4ccccc4n3)CC2)cc(C(F)(F)F)n1` [Compound 113, N-(4-(4-(2-(tert-Butyl)-6-(trifluoromethyl)pyrimidin-4-yl)piperazin-1-yl)butyl)imidazo[1,2-a]pyridine-2-carboxamide] the “percentage of baseline BP for food self-administration” value (Long Evans rats [1]) was “did not affect food self-administration”, the “percentage of baseline BP for cocaine under PR schedule, dose relation” value (Long Evans rats [2]; 3.75, 7.5 and 15 mg/kg intraperitoneally 10 minutes prior to session, cocaine 0.375, 0.75 or […]) was “dose-related reduction in the percentage of baseline BPs” and the “percentage of baseline BPs for cocaine compared to vehicle (Tukey post hoc)” value (Long Evans rats [2]; 3.75, 7.5 or 15 mg of 113, ps<0.05) was “significant reductions in the percentage of baseline BPs”. For the same compound, the cocaine-induced locomotor activity (Long Evans rats [3]) was “significantly reduce cocaine-induced locomotor activity in a dose-related fashion”, the “cue-induced reinstatement (presses on the active lever)” value (Rats) was “strongly reduced in a dose-related fashion” and the “spontaneous locomotor activity, overall” value (Long Evans rats [4]) was “none of the doses tested produced significant effects on spontaneous locomotor activity”.
